Literature values, collected in patent US20020037899A1, “Compositions containing an inhibitor of dihydrofolate reductase and a folate” (priority 2000, published 2002).

How the values were obtained:
[1] = test system: rheumatoid arthritis patients receiving methotrexate; conditions: for reduction in mucosal and gastrointestinal side effect: folic acid or folinic acid administered to rheumatoid arthritis patients receiving methotrexate
[2] = not given; remark: listed apart in the source

stable to heating at temperatures	solubility in water [2]	Compound	reduction in mucosal and gastrointestinal side effect [1]	effect on disease symptoms such as painful joints ([1]; high dosages of folinic acid, rheumatoid arthritis patients receiving methotrexate)
below 200 °C	1.6 mg per ml	Nc1nc2ncc(CNc3ccc(C(=O)N[C@@H](CCC(=O)O)C(=O)O)cc3)nc2c(=O)[nH]1 [folic acid]	79%	
		Nc1nc(=O)c2c([nH]1)NCC(CNc1ccc(C(=O)N[C@@H](CCC(=O)O)C(=O)O)cc1)N2C=O (mixture of isomers) [folinic acid]	79%	increase in disease symptoms
